Data taken from patent US20080299210A1, “STABLE NANOSIZED AMORPHOUS DRUG” (priority 2006, published 2008).

Tests used:
Water solubility of drug = format: physicochemical; conditions: 25 °C
Procedure: “Water solubility” means a measure of the maximum possible concentration of a drug dissolved in water. The water temperature may be specified; in an embodiment water solubility is determined at 25 Deg. C. Units of measurement of water solubility are typically mass/volume, such as mg/ml. The water solubility of drug useful in the practice of the present invention is less than or equal to about 1 mg/ml at 25 Deg. C.; preferably less than or equal to about 0.1 mg/ml at 25 Deg. C.; more preferably less than or equal to about 0.01 mg/ml at 25 Deg. C., still more preferably less than or equal to about 1 microgram/ml at 25 Deg. C.

[1] = Differential scanning calorimetry (DSC) of drug samples; format: physicochemical; conditions: for Tg of drug / ΔHc: DSC scanning rate 10° C./min
Procedure: The amorphous state of the amorphous drug core is determined by subjecting a population of nanoparticles that comprise one or more nanoparticles that comprise the recited amorphous drug core to differential scanning calorimetry (DSC). In an embodiment, a DSC method according to the invention used a Perkin-Elmer DSC-7 or a Diamond DSC calorimeter applied for the measurement of specific transition temperatures of tested samples. […] The instrument was calibrated using indium, tin and zinc certified reference materials (CRMs) The amorphous state of the amorphous drug core, as measured by DSC is expressed as a weight fraction of the weight of amorphous material in the amorphous drug core to the total weight of the amorphous drug core, expressed as an average value across the population of nanoparticles being measured. For instance, if a population of nanoparticles was measured using DSC, and the amorphous state was determined to be a particular value for the population, that value would be considered the average amorphous state for each nanoparticle within the population. An inventive amorphous drug core may contain a small amount of crystalline drug. […] “Glass forming ability” or “GFA” means the ratio of Tg to Tm. It can be calculated as: […] is a measure of the tendency of an amorphous drug to remain in an amorphous state. […] “Glass transition temperature” or “Tg” means that temperature at which a material transitions to a glassy state from a liquid state, as measured at standard atmospheric pressure. […] C. […] C.

O=C(NN1CCCCC1)c1nn(-c2ccc(Cl)cc2Cl)c2c1CCC/C2=C\c1ccc(F)cc1 [COMPOUND 1]
solubility (Water solubility of drug): ≤ 0.2 ng/mL | glass forming ability (GFA), Tg/Tm [1]: 0.81

O=C(NN1CCCCC1)c1nn(-c2ccc(Cl)cc2Cl)c2c1CCC/C2=C\c1ccc(F)cc1 [Amorphous COMPOUND 1]
Tg of drug [1]: 87.07 °C | ΔHc [1]: 0 J/g

O=C(NN1CCCCC1)c1nn(-c2ccc(Cl)cc2Cl)c2c1CCC/C2=C\c1ccc(F)cc1 [Crystalline COMPOUND 1]
ΔHc [1]: 77.64 J/g

CC(C)(C)c1ccc(C(O)CCCN2CCC(C(O)(c3ccccc3)c3ccccc3)CC2)cc1 (stereo not shown) [terfenadine, Terfenadine]
glass forming ability (GFA), Tg/Tm [1]: 0.77

CC(C)(C)c1ccc(C(O)CCCN2CCC(C(O)(c3ccccc3)c3ccccc3)CC2)cc1 (stereo not shown) [Crystalline terfenadine, terfenadine]
ΔHc [1]: 108.63 J/g

CC(C)(C)c1ccc(C(O)CCCN2CCC(C(O)(c3ccccc3)c3ccccc3)CC2)cc1 (stereo not shown) [Amorphous terfenadine, terfenadine]
Tg of drug [1]: 53.77 °C | ΔHc [1]: 10.35 J/g | crystallinity (crystalline portion) by DSC ([1]; relative to original crystallinity): less than 20%
